Assay results published in patent US20110039860A1, “SOLUBLE EPOXIDE HYDROLASE INHIBITORS, COMPOSITIONS CONTAINING SUCH COMPOUNDS AND METHODS OF TREATMENT” (priority 2008, published 2011).

molecular target: T1, human sEH enzyme (Homo sapiens, UniProt P34913); assay: sEH human enzyme assay (fluorescence based enzyme in vitro assay); assay type: biochemical; details: recombinant human sEH about 1 nM, fluorescence substrate S7 10 uM, 25° C.; read-out: IC50 [nM] for human sEH enzyme inhibition
T1 construct: His-tag (pET100 vector) (N, cleaved yes); made in house; host or cells: E. coli
T1 sequence (P34913 1-555): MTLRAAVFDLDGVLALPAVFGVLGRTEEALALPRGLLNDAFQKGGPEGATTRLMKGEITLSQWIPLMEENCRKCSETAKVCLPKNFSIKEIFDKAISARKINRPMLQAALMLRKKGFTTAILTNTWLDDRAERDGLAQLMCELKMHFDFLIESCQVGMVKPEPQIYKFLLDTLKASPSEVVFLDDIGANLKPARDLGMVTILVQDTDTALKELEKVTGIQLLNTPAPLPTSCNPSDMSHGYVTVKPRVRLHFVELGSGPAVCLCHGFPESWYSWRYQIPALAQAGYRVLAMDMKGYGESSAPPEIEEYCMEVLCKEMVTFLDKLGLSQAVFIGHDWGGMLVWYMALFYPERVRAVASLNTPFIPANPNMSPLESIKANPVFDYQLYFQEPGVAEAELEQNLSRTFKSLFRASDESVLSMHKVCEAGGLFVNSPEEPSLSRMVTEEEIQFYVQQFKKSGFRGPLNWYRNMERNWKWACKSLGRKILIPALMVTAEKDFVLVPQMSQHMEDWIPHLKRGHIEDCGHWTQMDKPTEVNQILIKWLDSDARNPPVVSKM
Text: Preparation of Recombinant sEH Human Enzyme
The DNA for expressing sEH was designed based on a […] sEH cDNA, modified to optimize for expression both in E. coli and insect cells. The designed DNA fragment encodes a protein sequence that is identical to full length human sEH, and the DNA was synthesized in vitro. The DNA was then subcloned into the pET100 vector that will generate a fusion protein with an N-terminal His-tag. The recombinant protein was expressed in E. coli. The sEH enzyme was affinity purified by a Ni^++ column. His-tag was removed by Enter Kinase (EK) digestion. The purified enzyme aliquots were frozen and held at −80° C. for later use. Fluorescence Based Enzyme in vitro Assay For each assay (100 ul), an aliquot of enzymes (about 1 nM final concentration) was incubated with a fluorescence substrate, S7 (10 uM final concentration), in sEH assay buffer (25 mM HEPES, […], 0.1 mg/ml BSA) in a 96-well plate. The kinetic reaction reading (Ex330/Em465) was conducted using a plate reader, Spectra max (Molecular Devices) at 25° C.

Compound	IC50 [nM]
Fc1cccc(C(F)(F)F)c1-c1ccc(NCC2CCCCC2)nc1 [Compound I-1, N-(cyclohexylmethyl)-5-[2-fluoro-6-(trifluoromethyl)phenyl]pyridin-2-amine]	1
O=C(O)[C@H]1CC[C@H](CCNc2ccc(-c3c(F)cccc3C(F)(F)F)cn2)CC1 [Compound I-2]	19
FC(F)(F)c1ccccc1-c1ccc(NCc2ccccc2)nc1 [Compound I-8]	25
FC(F)(F)c1ccccc1-c1ccc(NCCC(c2ccccc2)c2ccccc2)nc1 [Compound I-9]	832
FC(F)(F)c1ccccc1-c1ccc(NCc2cccc3ccccc23)nc1 [Compound I-10]	31
FC(F)(F)Oc1cccc(CNc2ccc(-c3ccccc3C(F)(F)F)cn2)c1 [Compound I-12]	52
O=C(N[C@H]1CC[C@H](CNc2ccc(-c3ccccc3C(F)(F)F)cn2)CC1)c1ccccc1C(F)(F)F [Compound I-14]	7
FC(F)(F)c1ccccc1-c1ccc(NCC2CCCCC2)nn1 [Compound I-17]	8
FC(F)(F)c1ccccc1-c1cnc(NCC2CCCCC2)cn1 [Compound I-18]	651
FC(F)(F)c1ccccc1-c1ccc(NCCc2c[nH]cn2)nc1 [Compound I-21]	100
O=C(O)C12CCC(CNc3ccc(-c4c(F)cccc4C(F)(F)F)cn3)(CC1)C2 [Compound I-22]	130
FC(F)(F)c1ccnc(N2CCN(CCNc3ccc(-c4ccccc4C(F)(F)F)cn3)CC2)n1 [Compound I-25]	26
O=C(O)C1CCN(C(=O)c2ccc(-c3ccc(NCCc4c(F)cccc4Cl)nc3)c(C(F)(F)F)c2)CC1 [II-1, 1-[4-(6-{[2-(2-chloro-6-fluorophenyl)ethyl]amino}pyridin-3-yl)-3-(trifluoromethyl)benzoyl]piperidine-4-carboxylic acid]	200
O=C(O)CCCOc1ccc(-c2ccc(NCC3CCCCC3)nc2)c(C(F)(F)F)c1 [II-2]	66
O=C(O)c1cccc(-c2ccc(-c3ccc(NCC4CCCCC4)nc3)c(C(F)(F)F)c2)c1 [II-3]	5
FC(F)(F)c1cc(-c2cccnc2)nn1-c1ccc(NCC2CCCCC2)nc1 [III-1, N-(cyclohexylmethyl)-5-[3-pyridin-3-yl-5-(trifluoromethyl)-1H-pyrazol-1-yl]pyridin-2-amine]	3

More lines, in order of falling IC50, values ahead:

IC50 [nM]	Compound
200	FC(F)(F)c1ccccc1-c1ccc(NC2CCOCC2)nc1 [Compound I-24]
92	FC(F)(F)c1ccccc1-c1ccc(NCc2cccnc2)nc1 [Compound I-19]
67	Fc1cccc(C(F)(F)F)c1-c1ccc(NCCc2c[nH]cn2)nc1 [Compound I-20]
53	FC(F)(F)c1cc(-c2nnn[nH]2)ccc1-c1ccc(NCC2CCCCC2)nc1 [Compound I-16]
53	FC(F)(F)c1ccccc1-c1ccc(NCC2CC2)nc1 [Compound I-26]
32	FC(F)(F)c1cccnc1-c1ccc(NCC2CCCCC2)nc1 [Compound I-7]
32	Clc1ccccc1-c1ccc(NCC2CCCCC2)nc1 [Compound I-11]
18	O=S(=O)(c1ccccc1C(F)(F)F)N1CCC(CNc2ccc(-c3ccccc3C(F)(F)F)cn2)CC1 [Compound I-13]
9	O=C(c1cccnc1)N1CCC(CNc2ccc(-c3ccccc3C(F)(F)F)cn2)CC1 [Compound I-4]
8	CC(C)(C)OC(=O)N1CCC(CNc2ccc(-c3cnccc3C(F)(F)F)cn2)CC1 [Compound I-15]
7	FC(F)(F)c1ccccc1-c1ccc(NCCN2CCN(c3cccc(Cl)c3)CC2)nc1 [Compound I-23]
4	O=C(NCC1CCCCC1)c1ccc(-c2ccc(NCC3CCCCC3)nc2)c(C(F)(F)F)c1 [II-4]
4	NC(=O)c1ccc(-c2ccc(NCC3CCCCC3)nc2)c(C(F)(F)F)c1 [II-5]
3	O=C(c1ccccc1C(F)(F)F)N1CCC(CNc2ccc(-c3ccccc3C(F)(F)F)cn2)CC1 [Compound I-6]
2	Fc1cccc(Cl)c1CCNc1ccc(-c2c(F)cccc2C(F)(F)F)cn1 [Compound I-5]
